Experimental data: patent publication US9597407B2, “Targeted antimicrobial moieties” (C3 Jian, Inc., priority 2009, dated 2017)
Entries after “also recorded” stand apart in the source; their conditions may differ.

Experiments:
bacteria = assay: Binding of targeting peptides to microorganisms (Table 3); settings: preferably 1x PBS
microorganisms = assay: Morphology, biofilm and growth disruption by peptides (Table 5); assay type: cell-based; set-up: key: A: Peptide aggregates; B: Less hyphal formation; Clumps; Diffuse clumps and small polyps; F: Diffuse growth; H: Thin; I: Growth inhibition; Microcolony formation; Rippled; Small polyps; Thick; W: Halo formation on top, microlonies on bottom
Text: In certain embodiments peptides that induce alterations in phenotype or other biological activities can also be used as antimicrobial effector moieties.

[1] = peptide binding in aqueous buffers that varied depending on peptide solubility
[2] = microorganism bound by the targeting peptide, binding in aqueous buffers chosen by peptide solubility
[3] = microorganism the targeting peptide binds, binding in aqueous buffers that varied with peptide solubility
[4] = peptide binding in aqueous buffers varied by peptide solubility

PF-637 (chain 1 SRIKQDARSVRKYDRIGIFFYSFKSA; chain 2 SRIKQDARSVRKYDRIGIFFYSFKSA; Peptide with targeting and/or antimicrobial activity)
Target(s) (microorganism bound by the targeting peptide) (bacteria; [1]): S. epidermidis and P. aeruginosa and C. albicans and MRSA and S. pneumoniae and E. faecalis and C. jeikeium
Organism, effect (morphology, biofilm and growth disruption) (microorganisms; C. jeikeium): C. jeikeium (D)
Organism, effect (morphology, biofilm and growth disruption) (microorganisms; E. faecalis): E. faecalis (D)
Organism, effect (morphology, biofilm and growth disruption) (microorganisms; MRSA): MRSA (M)
Organism, effect (morphology, biofilm and growth disruption) (microorganisms; S. epidermidis): S. epidermidis (M)
Organism, effect (morphology, biofilm and growth disruption) (microorganisms; S. pneumoniae): S. pneumoniae (M)

PF-602 (LEKEKKEYIEKLFKTK; Peptide with targeting and/or antimicrobial activity)
Target(s) (microorganism bound by the targeting peptide) (bacteria; [1]): P. mirabilis; also recorded: C. jeikeium
Organism, effect (morphology, biofilm and growth disruption) (microorganisms; E. faecalis): E. faecalis (A)

PF-C120 (ASLSTMTFKVMELKELIILLCGLTMLMIQTEFV; Peptide with targeting and/or antimicrobial activity)
Target(s) (microorganism bound by the targeting peptide) (bacteria; [1]): A. naeslundii; also recorded: F. nucleatum; also recorded: P. gingivalis; also recorded: S. mutans; also recorded: T. denticola
Organism, effect (morphology, biofilm and growth disruption) (microorganisms; F. nucleatum): F. nucleatum (T)

LNFRAENKILEKIHISLIDTVEGSA [PF-575]
Target(s) (microorganisms bound by the targeting peptide) (bacteria; [1]): M. luteus and E. coli and C. albicans and MRSA and S. pneumoniae and E. faecalis and C. jeikeium
Organism, effect (morphology, biofilm and growth disruption) (microorganisms; C. jeikeium): C. jeikeium (A)
Organism, effect (morphology, biofilm and growth disruption) (microorganisms; C. jejuni): C. jejuni (R)
Organism, effect (morphology, biofilm and growth disruption) (microorganisms; P. aeruginosa): P. aeruginosa (A)
Organism, effect (morphology, biofilm and growth disruption) (microorganisms; S. pneumoniae): S. pneumoniae (A)

PF-632 (chain 1 TTIQGVASLEKHGFRYTIIYPTRI; chain 2 TTIQGVASLEKHGFRYTIIYPTRI; Peptide with targeting and/or antimicrobial activity)
Target(s) (microorganism bound by the targeting peptide) (bacteria; [1]): S. epidermidis and P. aeruginosa and C. albicans and MRSA and S. pneumoniae and E. faecalis and C. jeikeium
Organism, effect (morphology, biofilm and growth disruption) (microorganisms; B. subtilis): B. subtilis (H)
Organism, effect (morphology, biofilm and growth disruption) (microorganisms; C. albicans): C. albicans (B)
Organism, effect (morphology, biofilm and growth disruption) (microorganisms; C. jeikeium): C. jeikeium (D)
Organism, effect (morphology, biofilm and growth disruption) (microorganisms; E. faecalis): E. faecalis (D)
Organism, effect (morphology, biofilm and growth disruption) (microorganisms; MRSA): MRSA (D)
Organism, effect (morphology, biofilm and growth disruption) (microorganisms; S. epidermidis): S. epidermidis (D)
Organism, effect (morphology, biofilm and growth disruption) (microorganisms; S. pneumoniae): S. pneumoniae (M)

HKNKLNIPHIKS [PF-477]
Target(s) (microorganisms bound by the targeting peptide) (bacteria; [1]): S. epidermidis; also recorded: M. luteus; also recorded: C. albicans; also recorded: S. pneumoniae; also recorded: C. jeikeium; also recorded: C. jejuni
Organism, effect (morphology, biofilm and growth disruption) (microorganisms; S. pneumoniae): S. pneumoniae (H)

PF-344 (DERLPEAKAIRNFNGSVMVLGR; Peptide with targeting and/or antimicrobial activity)
Target(s) (bacteria; [2]): B. subtilis; also recorded: C. jejuni
Organism, effect (microorganisms; E. coli): E. coli (A)

PF-208 (DAYHCHLVRSPDAHDLSMRIGFV; Peptide with targeting and/or antimicrobial activity)
Target(s) (bacteria; [2]): S. epidermidis and C. albicans and MRSA and S. pneumoniae and E. faecalis and C. jeikeium and C. jejuni
Organism, effect (microorganisms; C. jeikeium): C. jeikeium (A)
Organism, effect (microorganisms; S. epidermidis): S. epidermidis (D)

PF-395 (YCVPLGNMGNMNNKIW; Peptide with targeting and/or antimicrobial activity)
Target(s) (microorganisms bound by the targeting peptide) (bacteria; [1]): S. epidermidis; also recorded: E. coli; also recorded: P. aeruginosa; also recorded: S. pneumoniae; also recorded: E. faecalis; also recorded: C. jeikeium; also recorded: C. jejuni
Organism, effect (microorganisms; E. coli): E. coli (R)
Organism, effect (microorganisms; MRSA): MRSA (C)
Organism, effect (microorganisms; S. epidermidis): S. epidermidis (C)

PF-693 (chain 1 PDPAR; chain 2 PDPAR; Peptide with targeting and/or antimicrobial activity)
Target(s) (microorganism bound by the targeting peptide) (bacteria; [1]): Mycobacteria spp
Organism, effect (morphology, biofilm and growth disruption) (microorganisms; S. pneumoniae): S. pneumoniae (A)

LHVIRPRPELSELKFPITKILKVNKQGLKK [PF-752]
Target(s) (microorganism bound by the targeting peptide) (bacteria; [1]): S. epidermidis and E. coli and MRSA and S. pneumoniae and E. faecalis
Organism, effect (morphology, biofilm and growth disruption) (microorganisms; S. pneumoniae): S. pneumoniae (C)

PF-683 (chain 1 LWPVA; chain 2 LWPVA; Peptide with targeting and/or antimicrobial activity)
Target(s) (microorganism bound by the targeting peptide) (bacteria; [1]): Mycobacteria spp
Organism, effect (morphology, biofilm and growth disruption) (microorganisms; MRSA): MRSA (R)
Organism, effect (morphology, biofilm and growth disruption) (microorganisms; S. epidermidis): S. epidermidis (R)
Organism, effect (morphology, biofilm and growth disruption) (microorganisms; S. pneumoniae): S. pneumoniae (H)

PDAPRTCYHKPILAALSRIVVTDR [PF-524]
Target(s) (microorganisms bound by the targeting peptide) (bacteria; [1]): S. epidermidis and E. coli and P. aeruginosa and C. albicans and MRSA and S. pneumoniae and E. faecalis and C. jeikeium
Organism, effect (morphology, biofilm and growth disruption) (microorganisms; E. coli): E. coli (M)
Organism, effect (morphology, biofilm and growth disruption) (microorganisms; E. faecalis): E. faecalis (C)
Organism, effect (morphology, biofilm and growth disruption) (microorganisms; MRSA): MRSA (C)
Organism, effect (morphology, biofilm and growth disruption) (microorganisms; S. pneumoniae): S. pneumoniae (M)

PF-702 (chain 1 LSGRLAGRR; chain 2 LSGRLAGRR; Peptide with targeting and/or antimicrobial activity)
Target(s) (microorganism bound by the targeting peptide) (bacteria; [1]): Mycobacteria spp
Organism, effect (morphology, biofilm and growth disruption) (microorganisms; S. pneumoniae): S. pneumoniae (H)

PF-231 (AVRDFKKSVREEDEAASLNSPRTIDAQVKTSESTSVKS; Peptide with targeting and/or antimicrobial activity)
Target(s) (bacteria; [2]): S. mutans

PF-308 (QQYLILDRM; Peptide with targeting and/or antimicrobial activity)
Target(s) (bacteria; [2]): C. difficile

PF-800 (WYYFDNNGYM; Peptide with targeting and/or antimicrobial activity)
Target(s) (microorganism bound by the targeting peptide) (bacteria; [1]): S. mutans

1T-267 (RIKEERKNRSYKFFIWRLFDEKTGFI; Peptide with targeting and/or antimicrobial activity) [Peptide 1T-267]
Target(s) (bacteria; [3]): A. naeslundii; also recorded: F. nucleatum; also recorded: P. gingivalis; also recorded: T. denticola; also recorded: S. mitis; also recorded: S. mutans; also recorded: S. oralis; also recorded: S. sanguinis

PF-365 (LYKQKIQLEEELEKLKDDRQ; Peptide with targeting and/or antimicrobial activity)
Target(s) (bacteria; [2]): S. epidermidis; also recorded: B. subtilis; also recorded: B. fragilis; also recorded: P. aeruginosa; also recorded: C. albicans

PF-016 (RKQYDDLSFNFLY; Peptide with targeting and/or antimicrobial activity)
Target(s) (bacteria; [3]): S. epidermidis; also recorded: E. faecalis; also recorded: C. jeikeium

1T-92 (GQDEGQRRAGVGEGQGVDG; Peptide with targeting and/or antimicrobial activity) [Peptide 1T-92]
Target(s) (microorganism bound by the targeting peptide) (bacteria; [4]): S. mitis; also recorded: S. mutans

1T-26 (LTILPTTFFAIIVPILAVAFIAYSGFKIKGIVEHKDQW; Peptide with targeting and/or antimicrobial activity) [Peptide 1T-26]
Target(s) (microorganism bound by the targeting peptide) (bacteria; [4]): S. mutans; also recorded: S. aureus; also recorded: S. epidermidis; also recorded: C. jeikeium; also recorded: C. xerosis; also recorded: C. striatum; also recorded: P. aeruginosa

PF-504 (ILSVELSTKTSASGS; Peptide with targeting and/or antimicrobial activity)
Target(s) (microorganisms bound by the targeting peptide) (bacteria; [1]): S. mutans; also recorded: E. coli

1T-71 (KIDTNQWPPNKEG; Peptide with targeting and/or antimicrobial activity) [Peptide 1T-71]
Target(s) (microorganism bound by the targeting peptide) (bacteria; [4]): P. aeruginosa

PF-570 (KKFPTEESHIQAVLEFKKLTEHPSG; Peptide with targeting and/or antimicrobial activity)
Target(s) (microorganisms bound by the targeting peptide) (bacteria; [1]): S. pneumoniae; also recorded: C. jeikeium

1T-286 (LGFFNNKADLVKADTERDNRMSSLKIKDL; Peptide with targeting and/or antimicrobial activity) [Peptide 1T-286]
Target(s) (bacteria; [3]): S. sanguinis

1T-287 (KGYPLPFQYRLNNH; Peptide with targeting and/or antimicrobial activity) [Peptide 1T-287]
Target(s) (bacteria; [3]): P. gingivalis; also recorded: T. denticola; also recorded: S. gordonii; also recorded: S. mitis; also recorded: S. mutans; also recorded: S. oralis; also recorded: S. salivarious; also recorded: S. sanguinis

1T-64 (QTVHHIHMHVLGQRQMHWPPG; Peptide with targeting and/or antimicrobial activity) [Peptide 1T-64]
Target(s) (microorganism bound by the targeting peptide) (bacteria; [4]): S. aureus; also recorded: S. epidermidis; also recorded: C. jeikeium; also recorded: C. xerosis; also recorded: C. striatum; also recorded: P. aeruginosa

1T-248 (IGGALNSCG; Peptide with targeting and/or antimicrobial activity) [Peptide 1T-248]
Target(s) (bacteria; [3]): S. sanguinis

PF-154 (GIKKSKHPSTDDYVVKTTIDSL; Peptide with targeting and/or antimicrobial activity)
Target(s) (bacteria; [2]): S. mutans

PF-C160 (AASGFTYCASNGVWHPY; Peptide with targeting and/or antimicrobial activity)
Target(s) (microorganism bound by the targeting peptide) (bacteria; [1]): F. nucleatum

1T-51 (GKPKRMPAEFIDGYGQALLAGA; Peptide with targeting and/or antimicrobial activity) [Peptide 1T-51]
Target(s) (microorganism bound by the targeting peptide) (bacteria; [4]): S. aureus; also recorded: P. aeruginosa

TT-311 (AIFDAMHNL; Peptide with targeting and/or antimicrobial activity)
Target(s) (bacteria; [3]): S. mutans; also recorded: S. sobrinus

1T-7 (SQRIIEPVKSPQPYPGFSVS; Peptide with targeting and/or antimicrobial activity) [Peptide 1T-7]
Target(s) (microorganism bound by the targeting peptide) (bacteria; [4]): M. xanthus
